Data from ChEMBL document CHEMBL3046962, “Synthesis of new olefin chalcone derivatives as antitumor, antioxidant and antimicrobial agents” (Med Chem Res, 2012).

What was measured:
[1] = Cytotoxicity against Homo sapiens (human) PN-5C-12 at 100 ug after 72 hr by MTT assay; conditions: in vitro
[2] = test system: Proteus vulgaris; experiment: Antimicrobial activity against Proteus vulgaris MTCC 1751 at 100 ug after 24 hr by agar disk diffusion method; assay type: functional; conditions: MTCC 1751, 24 h, read-out: DIZ
[3] = Antioxidant activity assessed as ferric reducing activity at 100 ug after 20 min by UV-Visible spectrophotometry; set-up: scale not given: the % may be the effect or the level left
[4] = Cytotoxicity against Homo sapiens (human) HeLa-B75 at 100 ug after 72 hr by MTT assay; assay type: functional
[5] = Cytotoxicity against Homo sapiens (human) Hep-3BPN7 at 100 ug after 72 hr by MTT assay; assay type: functional
[6] = test system: Staphylococcus aureus; experiment: Antimicrobial activity against Staphylococcus aureus MTCC 96 at 100 ug after 24 hr by agar disk diffusion method; assay type: functional; conditions: MTCC 96, 24 h, read-out: DIZ
[7] = Antioxidant activity assessed as hydroxyl radical scavenging activity at 100 ug after 5 min by UV-Visible spectrophotometry; assay type: functional
[8] = test system: Escherichia coli; experiment: Antimicrobial activity against Escherichia coli DH5[alpha] at 100 ug after 24 hr by agar disk diffusion method; assay type: functional; conditions: read-out: DIZ
[9] = Cytotoxicity against Homo sapiens (human) HL60-P58 at 100 ug after 72 hr by MTT assay; assay type: functional
[10] = test system: Radical scavenging activity; experiment: Antioxidant activity assessed as DPPH radical scavenging activity at 100 ug after 20 min by UV-Visible spectrophotometry; assay type: functional
[11] = test system: Candida albicans; experiment: Antimicrobial activity against Candida albicans MTCC 3017 at 100 ug after 48 hr by agar disk diffusion method; assay type: functional; conditions: MTCC 3017, 48 h, read-out: DIZ

SMILES | Activity [1] | zone of inhibition at 100 µg/disc [2] | Activity [3] | Activity [4] | Activity [5] | zone of inhibition at 100 µg/disc [6] | Activity [7] | zone of inhibition at 100 µg/disc [8] | Activity [9] | Activity [10] | zone of inhibition at 100 µg/disc [11]
COc1cc(OC)c(C2=CCN(C)CC2)c(OC)c1/C=C/C(=O)c1ccc(F)cc1 | 69.43% | 7.5 mm | 48.3% | 85.04% | 79.86% | 2 mm | 38.7% | 4.5 mm | 62.18% | 22.9% | 3.5 mm
COc1cc(OC)c(C2=CCN(C)CC2)c(OC)c1/C=C/C(=O)c1ccccc1 | 61.79% | 2.5 mm | 58.4% | 84.15% | 78.06% | 5 mm | 41.4% | 5.5 mm | 63.52% | 27.9% | 3.5 mm
COc1cc(OC)c(C2=CCN(C)CC2)c(OC)c1/C=C/C(=O)c1ccc(Cl)cc1 | 67.98% | 3 mm | 41.9% | 83.74% | 77.4% | 2.5 mm | 16.9% | 3 mm | 65.04% | 20.4% | –
COc1cc(OC)c(C2=CCN(C)CC2)c(OC)c1/C=C/C(=O)c1ccc(Br)cc1 | 66.4% | – | 50.3% | 84.84% | 78.93% | 0.5 mm | 44.4% | 2 mm | 62.68% | 23.3% | 0.5 mm
COc1cc(OC)c(C2=CCN(C)CC2)c(OC)c1/C=C/C(=O)c1ccc(N)cc1 | 49.67% | 5 mm | 48.3% | 79.28% | 75.06% | 1.5 mm | 54.1% | 6.5 mm | 61.17% | 89.6% | 2.9 mm
COc1cc(OC)c(C2=CCN(C)CC2)c(OC)c1/C=C/C(=O)c1ccc([N+](=O)[O-])cc1 | 70.09% | 4 mm | 46.3% | 83.67% | 80.13% | 5 mm | 51.5% | 2 mm | 65.88% | 25% | 2 mm
CN(Cc1cnc2nc(N)nc(N)c2n1)c1ccc(C(=O)N[C@@H](CCC(=O)O)C(=O)O)cc1 [METHOTREXATE] | 53.85% | – | – | 78.66% | 64.6% | – | – | – | 54.08% | – | –
COc1cc(OC)c(C2=CCN(C)CC2)c(OC)c1/C=C/C(=O)c1ccc(Cl)c(Cl)c1 | 67.19% | 9.1 mm | 46.7% | 85.93% | 79.8% | 5 mm | 59.8% | 1.5 mm | 65.04% | 56.9% | 5.5 mm
COc1cc(OC)c(C2=CCN(C)CC2)c(OC)c1/C=C/C(=O)c1ccc[nH]1 | 57.57% | 3 mm | 61.2% | 77.77% | 80.13% | 1.1 mm | 63.1% | 6.25 mm | 66.55% | 68.7% | 1.5 mm
COc1ccc(C(=O)/C=C/c2c(OC)cc(OC)c(C3=CCN(C)CC3)c2OC)cc1 | 46.11% | 7 mm | 67.7% | 80.86% | 72.33% | 2.5 mm | 57.9% | 3.5 mm | 56.97% | 55.6% | –
COc1cc(OC)c(C2=CCN(C)CC2)c(OC)c1/C=C/C(=O)c1ccc(Cl)cc1Cl | 50.98% | 5.5 mm | 63.6% | 79.42% | 71.26% | 1.1 mm | 48.1% | 2.5 mm | 58.99% | 56.7% | 1.1 mm
COc1ccc(C(=O)/C=C/c2c(OC)cc(OC)c(C3=CCN(C)CC3)c2OC)c(OC)c1 | 47.82% | 3.5 mm | 53.1% | 83.4% | 77% | 2.5 mm | 59% | 3.15 mm | 78.48% | 60.6% | –
COc1cc(OC)c(C2=CCN(C)CC2)c(OC)c1/C=C/C(=O)c1cccc(N)c1 | 44.53% | 7 mm | 64.8% | 82.64% | 76.33% | 3.5 mm | 55.6% | 3.5 mm | 66.72% | 94.5% | 6.3 mm
COc1cc(OC)c(C(=O)/C=C/c2c(OC)cc(OC)c(C3=CCN(C)CC3)c2OC)c(OC)c1 | 59.81% | 3.5 mm | 58.8% | 78.73% | 70.53% | 3.5 mm | 46.6% | 3.5 mm | 65.04% | 56.1% | –
COc1cc(OC)c(C2=CCN(C)CC2)c(OC)c1/C=C/C(=O)c1cccs1 | 67.19% | 6.5 mm | 59.6% | 84.91% | 79.8% | 2.5 mm | 36.5% | 1.1 mm | 54.28% | 22.7% | 1.5 mm
COc1ccccc1C(=O)/C=C/c1c(OC)cc(OC)c(C2=CCN(C)CC2)c1OC | 46.77% | 3 mm | 60.8% | 81.13% | 71.33% | 2.5 mm | 59.8% | 3.5 mm | 68.4% | 60% | –
COc1ccc(C(=O)/C=C/c2c(OC)cc(OC)c(C3=CCN(C)CC3)c2OC)cc1OC | 65.21% | 5.5 mm | 50.7% | 84.84% | 79.46% | 0.5 mm | 35% | 2 mm | 62.77% | 22.3% | 1.5 mm
COc1ccc(OC)c(C(=O)/C=C/c2c(OC)cc(OC)c(C3=CCN(C)CC3)c2OC)c1 | 41.1% | 5 mm | 66.5% | 82.09% | 73.4% | 5 mm | 54.9% | 2.5 mm | 66.3% | 57.7% | –
COc1cc(O)c(C(=O)/C=C/c2c(OC)cc(OC)c(C3=CCN(C)CC3)c2OC)c(OC)c1 | 44.13% | 9.5 mm | 69.3% | 79.69% | 71.4% | 1.5 mm | 51.1% | 2 mm | 64.2% | 57.3% | –
COc1cc(OC)c(C2=CCN(C)CC2)c(OC)c1/C=C/C(=O)c1ccc(F)c(F)c1 | 65.48% | 4 mm | 43.9% | 82.85% | 76.93% | 2.5 mm | 52.2% | 2 mm | 70.5% | 58.8% | 1.1 mm
COc1cc(OC)c(C2=CCN(C)CC2)c(OC)c1/C=C/C(=O)c1ccc(C)cc1 | 44.26% | 10.2 mm | 68.1% | 82.23% | 72.53% | 5 mm | 59.8% | 2.5 mm | 69.49% | 58.5% | 0.1 mm
COc1cc(OC)c(C2=CCN(C)CC2)c(OC)c1/C=C/C(=O)c1cc(Cl)ccc1Cl | 60.47% | 6.5 mm | 62.4% | 79.97% | 70.8% | 1.5 mm | 48.5% | 1.5 mm | 65.63% | 55.4% | 1.5 mm
